According to ChEMBL document CHEMBL1125092, “Nonneurotoxic tetralin and indan analogues of 3,4-(methylenedioxy)amphetamine (MDA)” (J Med Chem, 1990):

Assays:
Rattus norvegicus [1] = assay: Monoamine levels in rat hippocampus were evaluated after subcutaneous administration of 40 mg/kg for 5-HT; assay type: functional
[2] = target: T1, Sodium-dependent serotonin transporter (Rattus norvegicus, UniProt P31652); assay: Binding affinity was determined towards serotonin uptake site in presence of [3H]paroxetine radioligand in rat brain cortical homogenate; assay type: tissue-based
T1 sequence (P31652 whole entry): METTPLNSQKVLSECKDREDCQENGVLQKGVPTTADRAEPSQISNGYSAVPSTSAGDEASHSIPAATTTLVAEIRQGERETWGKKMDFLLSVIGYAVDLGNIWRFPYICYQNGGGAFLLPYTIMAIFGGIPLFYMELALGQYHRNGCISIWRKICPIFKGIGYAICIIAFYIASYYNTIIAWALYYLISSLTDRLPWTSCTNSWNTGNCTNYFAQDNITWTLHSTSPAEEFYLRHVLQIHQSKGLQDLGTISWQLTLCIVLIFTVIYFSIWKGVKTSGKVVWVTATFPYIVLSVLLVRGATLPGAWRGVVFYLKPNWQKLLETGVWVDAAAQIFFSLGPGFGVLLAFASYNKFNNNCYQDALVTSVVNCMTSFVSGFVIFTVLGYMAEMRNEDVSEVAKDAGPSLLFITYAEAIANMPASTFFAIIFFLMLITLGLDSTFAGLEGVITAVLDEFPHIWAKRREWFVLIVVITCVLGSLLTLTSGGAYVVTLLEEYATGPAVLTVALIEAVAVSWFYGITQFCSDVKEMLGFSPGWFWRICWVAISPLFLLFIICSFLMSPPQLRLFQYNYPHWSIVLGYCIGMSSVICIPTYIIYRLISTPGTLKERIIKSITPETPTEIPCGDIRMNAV

Rattus norvegicus [3] = assay: Monoamine levels in rat hippocampus were evaluated after subcutaneous administration of 40 mg/kg for 5-HIAA; assay type: functional
Rattus norvegicus [4] = assay: Percentage of animals disrupted was determined in groups of LSD trained rats at a dose of 9.36(uM/kg) (no. of animals =6); assay type: functional
Rattus norvegicus [5] = assay: Monoamine levels in rat brain were evaluated after subcutaneous administration of 40 mg/kg for 5-HIAA; assay type: functional
Rattus norvegicus [6] = assay: Tested for stimulus generation in rats trained to discriminate +/-MDMA from saline at 4.68 (umol/kg), (number of animals = 8); assay type: functional
Rattus norvegicus [7] = assay: Tested for stimulus generation in rats trained to discriminate LSD from saline at a dose 2.34 (umol/kg) (number of animals = 10); assay type: functional
Rattus norvegicus [8] = assay: Monoamine levels in rat brain were evaluated after subcutaneous administration of 40 mg/kg for DOPAC; assay type: functional
Rattus norvegicus [9] = assay: Monoamine levels in rat brain were evaluated after subcutaneous administration of 40 mg/kg for DA; assay type: functional
Rattus norvegicus [10] = assay: Percentage of animals disrupted was determined in groups of MDMA trained rats at a dose 2.34 (uM/kg), (no.of animals=10); assay type: functional
Rattus norvegicus [11] = assay: Percentage of animals disrupted was determined in groups of MDMA trained rats at a dose 4.68 (uM/kg), (no.of animals=8); assay type: functional
Rattus norvegicus [12] = assay: Monoamine levels in rat brain were evaluated after subcutaneous administration of 40 mg/kg for 5-HT; assay type: functional
Rattus norvegicus [13] = assay: Tested for stimulus generation in rats trained to discriminate LSD from saline at a dose 0.59(uM/kg), (number of animals = 11); assay type: functional
Rattus norvegicus [14] = assay: Percentage of animals disrupted was determined in groups of LSD trained rats at a dose of 4.68(uM/kg) (no. of animals = 15); assay type: functional
Rattus norvegicus [15] = assay: Hallucinogenic property was determined in groups of LSD trained rats and percentage of animals disrupted was reported at a dose 0.59(uM/kg), (number of animals = 11); assay type: functional
Rattus norvegicus [16] = species: Rattus norvegicus; assay: Bmax for compound was evaluated in rat cortical homogenate; assay type: tissue-based
Rattus norvegicus [17] = assay: Tested for stimulus generation in rats trained to discriminate +/-MDMA from saline at 9.36 (umol/kg), (number of animals = 10); assay type: functional
[18] = target: T1, Sodium-dependent serotonin transporter; assay: Binding affinity was determined towards serotonin uptake site in presence of [3H]paroxetine radioligand in rat hippocampal homogenate; assay type: tissue-based, Hippocampus
Rattus norvegicus [19] = assay: Percentage of animals disrupted was determined in groups of LSD trained rats at a dose of 1.17(uM/kg)(no. of animals =16); assay type: functional
Rattus norvegicus [20] = assay: Tested for stimulus generation in rats trained to discriminate +/-MDMA from saline at 1.17 (umol/kg), (number of animals = 8); assay type: functional
Rattus norvegicus [21] = assay: Monoamine levels in at hippocampus were evaluated after subcutaneous administration of 40 mg/kg for NE; assay type: functional
Rattus norvegicus [22] = assay: Tested for stimulus generation in rats trained to discriminate +/-MDMA from saline at 2.34 (umol/kg), (number of animals = 10); assay type: functional
Rattus norvegicus [23] = assay: Percentage of animals disrupted was determined in groups of LSD trained rats at a dose of 2.34(uM/kg) (no. of animals = 10); assay type: functional
Rattus norvegicus [24] = assay: Percentage of animals disrupted was determined in groups of MDMA trained rats at a dose 9.36 (uM/kg), (no.of animals=10); assay type: functional
Rattus norvegicus [25] = assay: Hallucinogenic property was determined in groups of MDMA trained rats and percentage of animals disrupted was reported at a dose 1.17 (umol/kg), (number of animals = 8); assay type: functional
Rattus norvegicus [26] = species: Rattus norvegicus; assay: Bmax for compound was evaluated in rat hippocampal homogenate; assay type: tissue-based; details: Hippocampus
Rattus norvegicus [27] = assay: Monoamine levels in rat brain were evaluated after subcutaneous administration of 40 mg/kg for NE; assay type: functional
Rattus norvegicus [28] = assay: Monoamine levels in rat brain were evaluated after subcutaneous administration of 40 mg/kg for HVA; assay type: functional
Rattus norvegicus [29] = assay: Tested for stimulus generation in rats trained to discriminate LSD from saline at a dose 4.68 (umol/kg),(number of animals = 15); assay type: functional
Rattus norvegicus [30] = assay: Tested for stimulus generation in rats trained to discriminate LSD from saline at a dose 1.17 (umol/kg) (number of animals =16); assay type: functional

## NC1Cc2cc3c(cc2C1)OCO3
Rattus norvegicus [1]
  Monoamine level: 273 pg/mg
[2]
  Kd: 0.104 nM
Rattus norvegicus [3]
  Monoamine level: 473 pg/mg
Rattus norvegicus [4]
  D: 91%
Rattus norvegicus [5]
  Monoamine level: 329 pg/mg
Rattus norvegicus [6]
  SDL: 63%
Rattus norvegicus [7]
  SDL: 38%
Rattus norvegicus [8]
  Monoamine level: 187 pg/mg
Rattus norvegicus [9]
  Monoamine level: 130 pg/mg
Rattus norvegicus [10]
  D: 20%
Rattus norvegicus [11]
  D: 0%
Rattus norvegicus [12]
  Monoamine level: 330 pg/mg
Rattus norvegicus [13]
  SDL: 13%
Rattus norvegicus [14]
  D: 47%
Rattus norvegicus [15]
  D: 27%
Rattus norvegicus [16]
  Bmax: 918 fM/g
Rattus norvegicus [17]
  SDL: 100%
[18]
  Kd: 0.127 nM
Rattus norvegicus [19]
  D: 50%
Rattus norvegicus [20]
  SDL: 13%
Rattus norvegicus [21]
  Monoamine level: 459 pg/mg
Rattus norvegicus [22]
  SDL: 50%
Rattus norvegicus [23]
  D: 20%
Rattus norvegicus [24]
  D: 10%
Rattus norvegicus [25]
  D: 0%
Rattus norvegicus [26]
  Bmax: 675 fM/g
Rattus norvegicus [27]
  Monoamine level: 395 pg/mg
Rattus norvegicus [28]
  Monoamine level: 193 pg/mg
Rattus norvegicus [29]
  SDL: 25%
Rattus norvegicus [30]
  SDL: 50%
